In article PMC6792352, “Limited Chemical Structural Diversity Found to Modulate Thyroid Hormone Receptor in the Tox21 Chemical Library” (Environmental Health Perspectives, 2019) one finds CC50 data, which are given here for 67 compounds.

Structures can show the parent of a compound that is named as a salt.

The data set in a line: in vitro. Particulars: rat, gh3-tre-luc cells.

The CC50 is the concentration that lowers cell viability or growth by half. On to `CCCCCCOC(=O)c1ccccc1` [Hexyl benzoate], for which the 50% cytotoxic concentration (CC50) at 24 h (AC50 (uM) modified / 1000) was above 90 µM. Under “AC50 (uM) modified / 1000”, `Oc1ccc(Cl)c2c1CCC2` [Chlorindanol] came in with a 50% cytotoxic concentration (CC50) at 24 h above 50 µM. For the setting “AC50 (uM) modified / 1000”, `O=C(O)C(=O)Nc1cccc(-c2nnn[nH]2)c1` [Acitazanolast] gave a CC50 at 24 h above 50 µM. On the same count and under the same terms, next, `O=C(OCC(O)CO)c1ccccc1Nc1ccnc2cc(Cl)ccc12` (stereo not shown) [Glafenine hydrochloride]: above 20 µM.

On to `C1CCCNCC1` [Hexamethyleneimine], for which the half-maximal cytotoxic concentration (CC50) at 24 h (AC50 (uM) modified / 1000) is above 100 µM.

On to `COc1ccc(CCNC[C@H](O)c2ccc(O)cc2)cc1OC` [Denopamine], for which the 50% cytotoxic concentration (CC50) at 24 h (AC50 (uM) modified / 1000) is above 50 µM.

Take `CCCCCCC(=O)O[C@H]1CC[C@H]2[C@@H]3CCc4cc(O)ccc4[C@H]3CC[C@]12C` [Estradiol enanthate]: the CC50 at 24 h (AC50 (uM) modified / 1000) was above 50 µM. On to `CCCn1cc[n+](C)c1` [1-Methyl-3-propylimidazolium iodide], for which, under “AC50 (uM) modified / 1000”, the 50% cytotoxic concentration (CC50) at 24 h is above 90 µM. For the compound `C1COCCO1` [1,4-Dioxane], the CC50 at 24 h (AC50 (uM) modified / 1000) was above 90 µM. For `CC1C(=O)C[C@]2(C(C)C)C[C@H]12` (single isomer, unassigned; (-)) [(-)-alpha,beta-Thujone], the CC50 at 24 h (AC50 (uM) modified / 1000, Tox21_110001=Tox21_301840, viability, 1 nM T3 present, 24 h) was above 80 µM.

For the compound `N=C(N)NCCCCCCC(=O)NC(O)C(=O)NCCCCNCCCN` (stereo not shown) [Gusperimus trihydrochloride], under “AC50 (uM) modified / 1000”, the half-maximal cytotoxic concentration (CC50) at 24 h was above 50 µM. For `CCCC1C(CC)=CC(CC)=CN1c1ccccc1` (stereo not shown) [3,5-Diethyl-1-phenyl-2-propyl-1,2-dihydropyridine], the CC50 at 24 h (AC50 (uM) modified / 1000) was above 90 µM. `SCCCCCCCCS` [1,8-Octanedithiol] gave a CC50 at 24 h (AC50 (uM) modified / 1000) above 90 µM. For the setting “AC50 (uM) modified / 1000”, `CC[C@@H](C(=O)O)[C@@H]1O[C@@H]([C@@H](C)[C@H](O)[C@H](C)C(=O)[C@H](CC)[C@H]2O[C@]3(C=C[C@@H](O)[C@]4(CC[C@@](C)([C@H]5CC[C@](O)(CC)[C@H](C)O5)O4)O3)[C@H](C)C[C@@H]2C)[C@@H](C)C[C@@H]1C` [Narasin] had a half-maximal cytotoxic concentration (CC50) at 24 h of 0.153 µM. Regarding `CC/C=C\CCCCCO` [(6Z)-Non-6-en-1-ol], the half-maximal cytotoxic concentration (CC50) at 24 h (AC50 (uM) modified / 1000) is above 90 µM. Same read-out and setting: next, `CCCCC[C@H](O)/C=C/[C@H]1[C@H](O)CC(=O)[C@@H]1C/C=C\CCCC(=O)O` [Dinoprostone]: above 50 µM; `COc1ccc(C[C@H](N)C(=O)N[C@H]2[C@@H](O)[C@H](n3cnc4c(N(C)C)ncnc43)O[C@@H]2CO)cc1` [Puromycin dihydrochloride]: 11.2 µM.

`CSc1ccc(C(=O)C(C)(C)N2CCOCC2)cc1` [2-Methyl-4'-(methylthio)-2-morpholinopropiophenone] showed a 50% cytotoxic concentration (CC50) at 24 h (AC50 (uM) modified / 1000, Tox21_110001=Tox21_301664, viability, 1 nM T3 present, 24 h) above 90 µM. The compound `NCCCN1CCOCC1` [4-Morpholinepropanamine] displayed a 50% cytotoxic concentration (CC50) at 24 h (AC50 (uM) modified / 1000) above 90 µM. Compound `C[C@](N)(Cc1ccc(O)c(O)c1)C(=O)O` [Methyldopa sesquihydrate] gave a CC50 at 24 h (AC50 (uM) modified / 1000) above 90 µM. Consider `CC(C)COC(=O)c1ccccc1O` [Isobutyl salicylate], for which, under “AC50 (uM) modified / 1000”, the CC50 at 24 h was above 90 µM. Same read-out and setting: next, `C#C[C@]1(O)CC[C@H]2[C@@H]3CCc4cc(OC5CCCC5)ccc4[C@H]3CC[C@@]21C` [Quinestrol]: 16 µM; `c1ccc(CNCCNCc2ccccc2)cc1` [N,N'-Dibenzylethane-1,2-diamine dihydrochloride]: above 50 µM. In the case of `Clc1ccc2ccccc2c1` [2-Chloronaphthalene], the 50% cytotoxic concentration (CC50) at 24 h (AC50 (uM) modified / 1000, Tox21_110001=Tox21_200981, viability, 1 nM T3 present, 24 h) was above 90 µM. Where the note is “AC50 (uM) modified / 1000”, `C=CC(C)(CCC=C(C)C)OC(=O)CC` (stereo not shown) [3,7-Dimethylocta-1,6-dien-3-yl propanoate] yielded a 50% cytotoxic concentration (CC50) at 24 h above 90 µM.

Compound `C=CC(=O)O` [Acrylic acid] had a CC50 at 24 h (AC50 (uM) modified / 1000) above 50 µM. For the setting “AC50 (uM) modified / 1000”, `CC(=O)c1ccc([N+](=O)[O-])cc1` [4-Nitroacetophenone] displayed a CC50 at 24 h above 90 µM. Compound `O=C(Nc1ccccc1)Nc1ccccc1` [Diphenylurea] registered a CC50 at 24 h (AC50 (uM) modified / 1000) above 90 µM.

With `CC(C)(C)c1n[nH]c(=S)n(N)c1=O` [4-Amino-6-tert-butyl-3-thioxo-3,4-dihydro-1,2,4-triazin-5(2H)-one], for the setting “AC50 (uM) modified / 1000”, the half-maximal cytotoxic concentration (CC50) at 24 h was above 90 µM. For the compound `CCN(CC)CCNc1ccc(CNC=O)c2sc3ccc(OC)cc3c(=O)c12` [SR271425], it took 11.7 µM to reach half-maximal cytotoxicity (AC50 (uM) modified / 1000) (CC50 at 24 h). The same measure, in the same setting: under `C[C@H]1[C@H]2CC[C@H]3[C@@H]4CC=C5C[C@@H](N(C)C)CC[C@]5(C)[C@H]4CC[C@]23CN1C` [Conessine] stands above 50 µM; under `CCOC(=O)CC#N` [Ethyl cyanoacetate], above 90 µM. Take `Cc1nccn1-c1ccc(Sc2cccc(C3(C(N)=O)CCOCC3)c2)cc1` [CJ-013610]: the CC50 at 24 h (AC50 (uM) modified / 1000) was determined as 42.6 µM.

Consider `C[C@@H]1C[C@H]2[C@@H]3CCC4=CC(=O)C=C[C@]4(C)[C@@]3(F)[C@@H](O)C[C@]2(C)[C@H]1C(=O)CO` [Desoximetasone], for which the CC50 at 24 h (AC50 (uM) modified / 1000) is above 50 µM.

Turning to `O=c1[nH]cnc2nc[nH]c12` [Hypoxanthine], the cytotoxic concentration (CC50) at 24 h (AC50 (uM) modified / 1000) was above 50 µM. The same measure, in the same setting: under `CC(CO)OC(C)CO` (stereo not shown) [Dipropylene glycol] stands above 90 µM; under `CCCCCCOC(=O)CCCCCCCC(=O)OCCCCCC` [Dihexyl nonanedioate], above 90 µM; under `CCCCCOC(=O)CCCCC` [Pentyl hexanoate], above 90 µM. As for `Oc1cc(Cl)cc(Cl)c1Cl` [2,3,5-Trichlorophenol], the CC50 at 24 h (AC50 (uM) modified / 1000) was above 90 µM. Turning to `Oc1c(Cl)c(Cl)cc(Cl)c1Cl` [2,3,5,6-Tetrachlorophenol], under “AC50 (uM) modified / 1000, Tox21_110001=Tox21_200910, viability, 1 nM T3 present, 24 h”, half-maximal cytotoxicity (CC50 at 24 h) was put at 65.8 µM. In turn, `C=C[Si](OCCOC)(OCCOC)OCCOC` registered a half-maximal cytotoxic concentration (CC50) at 24 h (AC50 (uM) modified / 1000) above 90 µM. The same measure, in the same setting: next, `Cc1nc2ccc(CN(C)c3ccc(C(=O)N[C@@H](CCC(=O)O)C(=O)O)s3)cc2c(=O)[nH]1` [Raltitrexed]: above 50 µM. Under “AC50 (uM) modified / 1000, Tox21_110001=Tox21_111802, viability, 1 nM T3 present, 24 h”, `O=C(CCl)c1ccc(Oc2ccc(C(=O)CCl)cc2)cc1` [Clofenoxyde] registered a half-maximal cytotoxic concentration (CC50) at 24 h above 50 µM. Take `CSSc1ccoc1C` [Methyl 2-methyl-3-furyl disulfide]: the CC50 at 24 h (AC50 (uM) modified / 1000) was above 80 µM.

`CCC1=C(C)CN(C(=O)NCCc2ccc(S(=O)(=O)NC(=O)N[C@H]3CC[C@H](C)CC3)cc2)C1=O` [Glimepiride]: the CC50 at 24 h (AC50 (uM) modified / 1000) is above 50 µM.

Take `CC(C)CC(C)N(c1ccccc1)c1ccc(N)cc1` (stereo not shown) [N-(4-Methylpentan-2-yl)-N-phenylbenzene-1,4-diamine]: under “AC50 (uM) modified / 1000”, the 50% cytotoxic concentration (CC50) at 24 h came out at 28.5 µM.

Compound `O=S1(=O)c2cccc3cccc(c23)N1CCCN1CCN(c2ccc(F)cc2)CC1` [Fananserin] gave a CC50 at 24 h (AC50 (uM) modified / 1000) above 50 µM. The same measure, in the same setting: next, `C[C@H](/C=C/[C@H](C)C(C)(C)O)[C@H]1CC[C@H]2/C(=C/C=C3C[C@@H](O)C[C@H](O)C3)CCC[C@]12C` [Paricalcitol]: 27 µM.

The compound `ClCc1ccc(Cl)cc1Cl` [2,4-Dichloro-1-(chloromethyl)benzene] came in with a CC50 at 24 h (AC50 (uM) modified / 1000) above 90 µM. Still for that read-out and setting: under `CCc1oc2ccccc2c1C(=O)c1cc(I)c(O)c(I)c1` [Benziodarone] stands 24.8 µM; under `O=C1[C@H](CC[C@H](O)c2ccc(F)cc2)[C@@H](c2ccc(O)cc2)N1c1ccc(F)cc1` [Ezetimibe], above 50 µM. For `CCNC(=O)[C@@H](C)OC(=O)Nc1ccccc1` [Carbetamide], under “AC50 (uM) modified / 1000”, the cytotoxic concentration (CC50) at 24 h was above 90 µM. `CNNC` [1,2-Dimethylhydrazine dihydrochloride] displayed a CC50 at 24 h (AC50 (uM) modified / 1000, Tox21_110001=Tox21_201194, viability, 1 nM T3 present, 24 h) above 90 µM. With `CC1CCc2c(N3CCC(O)CC3)c(F)cc3c(=O)c(C(=O)O)cn1c23` (stereo not shown) [Nadifloxacin], the CC50 at 24 h (AC50 (uM) modified / 1000) was above 50 µM. Same read-out and setting: under `O=S(=O)(O)OC[C@H]1O[C@@](COS(=O)(=O)O)(O[C@H]2O[C@H](COS(=O)(=O)O)[C@@H](OS(=O)(=O)O)[C@H](OS(=O)(=O)O)[C@H]2OS(=O)(=O)O)[C@@H](OS(=O)(=O)O)[C@@H]1OS(=O)(=O)O` [Sucrose octasulfate, sodium salt] stands above 50 µM; under `CC(C)c1ncc([N+](=O)[O-])n1C` [Ipronidazole], above 50 µM.

For `CO/N=C(\C(=O)N[C@@H]1C(=O)N2C(C(=O)OCOC(=O)C(C)(C)C)=C(C)CS[C@H]12)c1csc(N)n1` [Cefetamet pivoxil HCl], the CC50 at 24 h (AC50 (uM) modified / 1000) is above 50 µM.

As for `CC(C)CCCC(C)CCO` (stereo not shown) [3,7-Dimethyloctan-1-ol], the 50% cytotoxic concentration (CC50) at 24 h (AC50 (uM) modified / 1000) is above 90 µM. Turning to `Nc1ccc(-c2ccc(N)cc2)cc1` [Benzidine], the half-maximal cytotoxic concentration (CC50) at 24 h (AC50 (uM) modified / 1000, Tox21_110001=Tox21_202359, viability, 1 nM T3 present, 24 h) is above 90 µM.

Where the note is “AC50 (uM) modified / 1000”, `C=CCN1CC[C@]23c4c5ccc(O)c4O[C@H]2C(=O)CC[C@@]3(O)[C@H]1C5` [Naloxone] came in with a CC50 at 24 h above 50 µM. As for `CC(C)NCC(O)c1ccc(NS(C)(=O)=O)cc1` (stereo not shown) [Sotalol hydrochloride], the CC50 at 24 h (AC50 (uM) modified / 1000) is above 90 µM.

For `CC[C@]1(O)C[C@H]2CN(CCc3c([nH]c4ccccc34)[C@@](C(=O)OC)(c3cc4c(cc3OC)N(C)[C@H]3[C@@](O)(C(N)=O)[C@H](O)[C@]5(CC)C=CCN6CC[C@]43[C@@H]65)C2)C1` [Vindesine sulfate salt], the CC50 at 24 h (AC50 (uM) modified / 1000) is 0.425 µM. The same measure, in the same setting: under `COc1ccc(OC)c(NC(=O)CC(C)=O)c1` [N-(2,5-Dimethoxyphenyl)-3-oxobutanamide] stands above 90 µM; under `O=C[C@H](O)[C@@H](O)[C@H](O[C@H]1O[C@H](CO)[C@@H](O[C@H]2O[C@H](CO)[C@@H](O)[C@H](O)[C@H]2O)[C@H](O)[C@H]1O)[C@H](O)CO` [Maltotriose], above 50 µM; under `C[C@@H](NCCCc1cccc(C(F)(F)F)c1)c1cccc2ccccc12` [Cinacalcet hydrochloride], 5.95 µM. Same read-out and setting: next, `C=CCOc1c(Br)cc(C(C)(C)c2cc(Br)c(OCC=C)c(Br)c2)cc1Br` [Tetrabromobisphenol A diallyl ether]: above 50 µM; `O=C1OC(=O)C2CC=CCC12` (stereo not shown) [Tetrahydrophthalic anhydride]: above 90 µM.
